Assay results: patent US10780090B2, “Heteroaryl compounds useful as inhibitors of SUMO activating enzyme” (Millennium Pharmaceuticals, Inc., priority 2014, dated 2020)
pIC50: −log10 of the molar value.

Target: recombinant human SAE enzyme (Homo sapiens (Human), UniProt Q9UBT2)
Experiment: SAE HTRF enzyme assay
Type: biochemical
Settings: for Percent Inhibition: Concentration 0.111 μM; for pIC50: class symbols A/B/C
Procedure, shortened: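 Enzyme reaction: 50 mM HEPES pH 7.5, 5 mM MgCl2, 250 μM GSH, 0.05% BSA, 0.5 μM ATP, 0.01 μM Ubc9-GST, 0.125 μM Sumo-Flag, 0.11 nM SAE; 105 min, 24° C. Stop/detect, 2 h, then HTRF. % inh or IC50.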

Chain of recombinant human SAE enzyme (Q9UBT2 whole entry): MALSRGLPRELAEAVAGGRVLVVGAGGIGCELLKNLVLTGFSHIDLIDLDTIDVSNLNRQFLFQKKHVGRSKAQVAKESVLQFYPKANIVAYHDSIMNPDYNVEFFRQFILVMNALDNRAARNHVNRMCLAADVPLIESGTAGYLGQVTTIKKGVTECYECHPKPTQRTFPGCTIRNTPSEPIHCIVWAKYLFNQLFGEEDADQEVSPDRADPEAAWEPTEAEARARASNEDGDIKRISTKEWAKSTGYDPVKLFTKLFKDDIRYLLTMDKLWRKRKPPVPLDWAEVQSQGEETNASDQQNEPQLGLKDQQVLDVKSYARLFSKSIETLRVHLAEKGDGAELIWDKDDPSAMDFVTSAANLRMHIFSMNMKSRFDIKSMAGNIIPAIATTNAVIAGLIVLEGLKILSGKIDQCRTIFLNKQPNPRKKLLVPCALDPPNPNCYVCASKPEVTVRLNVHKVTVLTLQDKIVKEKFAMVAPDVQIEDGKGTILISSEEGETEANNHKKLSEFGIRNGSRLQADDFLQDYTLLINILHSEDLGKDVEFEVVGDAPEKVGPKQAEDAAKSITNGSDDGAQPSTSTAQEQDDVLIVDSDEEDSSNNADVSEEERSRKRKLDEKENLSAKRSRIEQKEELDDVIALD
Chain of recombinant human SAE enzyme (Q9UBE0 whole entry partner): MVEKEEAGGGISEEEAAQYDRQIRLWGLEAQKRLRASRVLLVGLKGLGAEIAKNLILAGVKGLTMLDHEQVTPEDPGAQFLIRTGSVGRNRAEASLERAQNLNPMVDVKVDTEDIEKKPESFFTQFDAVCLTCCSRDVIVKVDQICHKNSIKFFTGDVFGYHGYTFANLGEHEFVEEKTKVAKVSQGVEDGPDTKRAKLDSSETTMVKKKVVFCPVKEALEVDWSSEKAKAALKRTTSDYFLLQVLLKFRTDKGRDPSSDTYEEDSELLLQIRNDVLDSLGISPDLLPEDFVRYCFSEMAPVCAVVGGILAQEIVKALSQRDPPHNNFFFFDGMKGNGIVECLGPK

## NS(=O)(=O)OC[C@H]1C[C@@H](Nc2ncncc2C(=O)c2cc([C@@H]3NCCc4ccc(Br)cc43)c(Cl)s2)[C@H](O)[C@@H]1O (single isomer, unassigned) [I-259a, [(1R,2R,3S,4R)-4-{[5-({4-[(1R)-7-bromo-1,2,3,4-tetrahydroisoquinolin-1-yl]-5-chloro-2-thienyl}carbonyl)pyrimidin-4-yl]amino}-2,3-dihydroxycyclopentyl]methyl sulfamate or [(1R,2R,3S,4R)-4-{[5-({4-[(1S)-7-bromo-1,2,3,4-tetrahydroisoquinolin-1-yl]-5-chloro-2-thienyl}carbonyl)pyrimidin-4-yl]amino}-2,3-dihydroxycyclopentyl]methyl sulfamate]
  Percent Inhibition: 100
  pIC50: > 8.00

## NS(=O)(=O)OC[C@H]1C[C@@H](Nc2ncncc2C(=O)c2cc([C@@H]3NCCc4ccc(Br)cc43)c(Cl)s2)[C@H](O)[C@@H]1O (single isomer, unassigned) [I-259b, [(1R,2R,3S,4R)-4-{[5-({4-[(1R)-7-bromo-1,2,3,4-tetrahydroisoquinolin-1-yl]-5-chloro-2-thienyl}carbonyl)pyrimidin-4-yl]amino}-2,3-dihydroxycyclopentyl]methyl sulfamate or [(1R,2R,3S,4R)-4-{[5-({4-[(1S)-7-bromo-1,2,3,4-tetrahydroisoquinolin-1-yl]-5-chloro-2-thienyl}carbonyl)pyrimidin-4-yl]amino}-2,3-dihydroxycyclopentyl]methyl sulfamate]
  Percent Inhibition: 97
  pIC50: > 8.00

## Cc1sc(C(=O)c2cncnc2N[C@@H]2C[C@H](COS(N)(=O)=O)[C@@H](O)C2)cc1[C@H]1OCC(F)(F)c2ccc(Cl)nc21 (single isomer, unassigned) [I-260a, [(1R,2S,4R)-4-{[5-({4-[(8R)-2-chloro-5,5-difluoro-5,8-dihydro-6H-pyrano[3,4-b]pyridin-8-yl]-5-methyl-2-thienyl}carbonyl)pyrimidin-4-yl]amino}-2-hydroxycyclopentyl]methyl sulfamate or [(1R,2S,4R)-4-{[5-({4-[(8S)-2-chloro-5,5-difluoro-5,8-dihydro-6H-pyrano[3,4-b]pyridin-8-yl]-5-methyl-2-thienyl}carbonyl)pyrimidin-4-yl]amino}-2-hydroxycyclopentyl]methyl sulfamate]
  Percent Inhibition: 99
  pIC50: > 8.00

## Cc1sc(C(=O)c2cncnc2N[C@@H]2C[C@H](COS(N)(=O)=O)[C@@H](O)C2)cc1[C@H]1OCC(F)(F)c2ccc(Cl)nc21 (single isomer, unassigned) [I-260b, [(1R,2S,4R)-4-{[5-({4-[(8R)-2-chloro-5,5-difluoro-5,8-dihydro-6H-pyrano[3,4-b]pyridin-8-yl]-5-methyl-2-thienyl}carbonyl)pyrimidin-4-yl]amino}-2-hydroxycyclopentyl]methyl sulfamate or [(1R,2S,4R)-4-{[5-({4-[(8S)-2-chloro-5,5-difluoro-5,8-dihydro-6H-pyrano[3,4-b]pyridin-8-yl]-5-methyl-2-thienyl}carbonyl)pyrimidin-4-yl]amino}-2-hydroxycyclopentyl]methyl sulfamate]
  Percent Inhibition: 98
  pIC50: > 8.00

## NS(=O)(=O)OC[C@H]1C[C@@H](Nc2ncncc2C(=O)c2cc(C3OCCc4ccc(Cl)cc43)cs2)C[C@@H]1O (single isomer, unassigned) [I-261a, [(1R,2S,4R)-4-{[5-({4-[(1R)-7-chloro-3,4-dihydro-1H-isochromen-1-yl]-2-thienyl}carbonyl)pyrimidin-4-yl]amino}-2-hydroxycyclopentyl]methyl sulfamate or [(1R,2S,4R)-4-{[5-({4-[(1S)-7-chloro-3,4-dihydro-1H-isochromen-1-yl]-2-thienyl}carbonyl)pyrimidin-4-yl]amino}-2-hydroxycyclopentyl]methyl sulfamate]
  Percent Inhibition: 76
  pIC50: 7.00 to 8.00

## NS(=O)(=O)OC[C@H]1C[C@@H](Nc2ncncc2C(=O)c2cc(C3OCCc4ccc(Cl)cc43)cs2)C[C@@H]1O (single isomer, unassigned) [I-261b, [(1R,2S,4R)-4-{[5-({4-[(1R)-7-chloro-3,4-dihydro-1H-isochromen-1-yl]-2-thienyl}carbonyl)pyrimidin-4-yl]amino}-2-hydroxycyclopentyl]methyl sulfamate or [(1R,2S,4R)-4-{[5-({4-[(1S)-7-chloro-3,4-dihydro-1H-isochromen-1-yl]-2-thienyl}carbonyl)pyrimidin-4-yl]amino}-2-hydroxycyclopentyl]methyl sulfamate]
  Percent Inhibition: 99
  pIC50: > 8.00

## NS(=O)(=O)OC[C@H]1C[C@@H](Nc2ncncc2C(=O)c2cc([C@@H]3NCc4ccc(Cl)cc43)c(Cl)s2)C[C@@H]1O (single isomer, unassigned) [I-262a, [(1R,2S,4R)-4-{[5-({5-chloro-4-[(1R)-6-chloro-2,3-dihydro-1H-isoindol-1-yl]-2-thienyl}carbonyl)pyrimidin-4-yl]amino}-2-hydroxycyclopentyl]methyl sulfamate or [(1R,2S,4R)-4-{[5-({5-chloro-4-[(1S)-6-chloro-2,3-dihydro-1H-isoindol-1-yl]-2-thienyl}carbonyl)pyrimidin-4-yl]amino}-2-hydroxycyclopentyl]methyl sulfamate]
  Percent Inhibition: 98
  pIC50: > 8.00

## NS(=O)(=O)OC[C@H]1C[C@@H](Nc2ncncc2C(=O)c2cc([C@@H]3NCc4ccc(Cl)cc43)c(Cl)s2)C[C@@H]1O (single isomer, unassigned) [I-262b, [(1R,2S,4R)-4-{[5-({5-chloro-4-[(1R)-6-chloro-2,3-dihydro-1H-isoindol-1-yl]-2-thienyl}carbonyl)pyrimidin-4-yl]amino}-2-hydroxycyclopentyl]methyl sulfamate or [(1R,2S,4R)-4-{[5-({5-chloro-4-[(1S)-6-chloro-2,3-dihydro-1H-isoindol-1-yl]-2-thienyl}carbonyl)pyrimidin-4-yl]amino}-2-hydroxycyclopentyl]methyl sulfamate]
  Percent Inhibition: 98
  pIC50: > 8.00

## Cc1sc(C(=O)c2cncnc2N[C@@H]2C[C@H](COS(N)(=O)=O)[C@@H](O)[C@@H]2F)cc1[C@H]1OCCc2ccc(Cl)cc21 (single isomer, unassigned) [I-264a, [(1R,2R,3R,4R)-4-{[5-({4-[(1S)-7-chloro-3,4-dihydro-1H-isochromen-1-yl]-5-methyl-2-thienyl}carbonyl)pyrimidin-4-yl]amino}-3-fluoro-2-hydroxycyclopentyl]methyl sulfamate or [(1R,2R,3R,4R)-4-{[5-({4-[(1R)-7-chloro-3,4-dihydro-1H-isochromen-1-yl]-5-methyl-2-thienyl}carbonyl)pyrimidin-4-yl]amino}-3-fluoro-2-hydroxycyclopentyl]methyl sulfamate]
  Percent Inhibition: 33
  pIC50: 6.00 to 7.00

## Cc1sc(C(=O)c2cncnc2N[C@@H]2C[C@H](COS(N)(=O)=O)[C@@H](O)[C@@H]2F)cc1[C@H]1OCCc2ccc(Cl)cc21 (single isomer, unassigned) [I-264b, [(1R,2R,3R,4R)-4-{[5-({4-[(1S)-7-chloro-3,4-dihydro-1H-isochromen-1-yl]-5-methyl-2-thienyl}carbonyl)pyrimidin-4-yl]amino}-3-fluoro-2-hydroxycyclopentyl]methyl sulfamate or [(1R,2R,3R,4R)-4-{[5-({4-[(1R)-7-chloro-3,4-dihydro-1H-isochromen-1-yl]-5-methyl-2-thienyl}carbonyl)pyrimidin-4-yl]amino}-3-fluoro-2-hydroxycyclopentyl]methyl sulfamate]
  Percent Inhibition: 98
  pIC50: > 8.00

## CN1Cc2ccc(Cl)cc2[C@@H]1c1csc(C(=O)c2cncnc2N[C@@H]2C[C@H](COS(N)(=O)=O)[C@@H](O)C2)c1 (single isomer, unassigned) [I-265a, [(1R,2S,4R)-4-{[5-({4-[(1R)-6-chloro-2-methyl-2,3-dihydro-1H-isoindol-1-yl]-2-thienyl}carbonyl)pyrimidin-4-yl]amino}-2-hydroxycyclopentyl]methyl sulfamate or [(1R,2S,4R)-4-{[5-({4-[(1S)-6-chloro-2-methyl-2,3-dihydro-1H-isoindol-1-yl]-2-thienyl}carbonyl)pyrimidin-4-yl]amino}-2-hydroxycyclopentyl]methyl sulfamate]
  Percent Inhibition: 99
  pIC50: > 8.00

## CN1Cc2ccc(Cl)cc2[C@@H]1c1csc(C(=O)c2cncnc2N[C@@H]2C[C@H](COS(N)(=O)=O)[C@@H](O)C2)c1 (single isomer, unassigned) [I-265b, [(1R,2S,4R)-4-{[5-({4-[(1R)-6-chloro-2-methyl-2,3-dihydro-1H-isoindol-1-yl]-2-thienyl}carbonyl)pyrimidin-4-yl]amino}-2-hydroxycyclopentyl]methyl sulfamate or [(1R,2S,4R)-4-{[5-({4-[(1S)-6-chloro-2-methyl-2,3-dihydro-1H-isoindol-1-yl]-2-thienyl}carbonyl)pyrimidin-4-yl]amino}-2-hydroxycyclopentyl]methyl sulfamate]
  Percent Inhibition: 72
  pIC50: 7.00 to 8.00

## NS(=O)(=O)OC[C@H]1C[C@@H](Nc2ncncc2C(=O)c2cc([C@@H]3OCCc4cccnc43)c(Cl)s2)C[C@@H]1O (single isomer, unassigned) [I-266a, [(1R,2S,4R)-4-{[5-({5-chloro-4-[(8S)-5,8-dihydro-6H-pyrano[3,4-b]pyridin-8-yl]-2-thienyl}carbonyl)pyrimidin-4-yl]amino}-2-hydroxycyclopentyl]methyl sulfamate or [(1R,2S,4R)-4-{[5-({5-chloro-4-[(8R)-5,8-dihydro-6H-pyrano[3,4-b]pyridin-8-yl]-2-thienyl}carbonyl)pyrimidin-4-yl]amino}-2-hydroxycyclopentyl]methyl sulfamate]
  Percent Inhibition: 41
  pIC50: 6.00 to 7.00
